Laboratory results published in patent publication EP4014964A1, “TOPICAL FORMULATION” (Almirall S.A., priority 2020, dated 2022).

Test system: immortalized human sebocyte cell line, SZ95
Assay: In vitro assay of inhibition of Lipid Synthesis
Type: cell-based
Settings: SZ95 cells, lipid synthesis induced by 75µM AA, 48h, neutral lipids measured with AdipoRed fluorescence
Description: To evaluate the inhibition of lipid synthesis, the immortalized human sebocyte cell line, SZ95 (stablished by Zouboulis, C.C. et al J Invest Dermatol 1999; 113: 1011-20), was treated with arachidonic acid (AA) in presence or absence of compound. Lipids were detected by using a lipid sensing fluorophore.
10k cells were plated in 384 well microtiter plates and incubated at 37 °C and 5% CO2 in DMEM/F12 supplemented with 10% FBS, 1.25ng/ml of rhEGF and GA-1000, using the MicroClime Lids from Labcyte to reduce the edge effect, before of compound and stimulus addition.
After 24h, compounds were dissolved in DMSO 100%. Then the stocks were serial diluted 1/3 in DMSO 100%, and this battery of solutions were diluted 1/10 in culture medium. Later, compounds dissolved in culture media were added over cells, diluting the solutions prepared 1/40 in the final volume of the assay. Then, cells and compounds were preincubated for 30 min at 37 °C and 5% CO2. After this prior incubation, the lipid synthesis was induced by 75µM of AA final solution, preparing a solution 10x in culture media containing a 1.25% of DMSO. Finally, SZ95 treated were incubated for 48h at 37°C and 5% CO2.
Neutral lipids were measured using AdipoRedTM, purchased from Lonza. To do that, cells were washed with PBS and incubated with a solution of AdipoRedTM (final dilution 1/80 in PBS) for 30 min at room temperature. After the staining process, the fluorescence intensity (FI) was quantified using a fluorescence plate reader (excitation 485 nm; emission 535).
Activity of compounds was calculated as % of inhibition considering the maximal fluorescence for AA-stimulated cells and the minimum fluorescence for unstimulated cells as controls.

Compound | IC50 (Homo sapiens) [nM] | IC50 [nM]
CCCCCCCc1ccc(-c2c[nH]c(C(=O)O)c2F)c(Cl)c1 [Example 1, 4-(2-Chloro-4-heptylphenyl)-3-fluoro-1H-pyrrole-2-carboxylic acid] | < 200 | –
CCCCCCCc1ccc(-c2c[nH]c(C(=O)O)c2F)c(CC)c1 [Example 2, 4-(2-Ethyl-4-heptylphenyl)-3-fluoro-1H-pyrrole-2-carboxylic acid] | < 200 | –
CCCCCCCCCCCCCc1c[nH]c(C(=O)O)c1F [Example 3, 3-Fluoro-4-tridecyl-1H-pyrrole-2-carboxylic acid] | < 50 | –
CCCCCCCCC1CCC(c2c[nH]c(C(=O)O)c2F)CC1 (stereo not shown) [Example 4, 3-Fluoro-4-((1r,4s)-4-octylcyclohexyl)-1H-pyrrole-2-carboxylic acid] | – | < 200
